US8921405B2, “Compounds” (Orexo AB, priority 2009, dated 2014)

Target: T1, recombinant human mPGES-1 (Homo sapiens, UniProt O14684)
T1 construct: made in house; host or cells: Rosetta E. coli (membrane/microsome fraction)
T1 sequence (O14684 1-152): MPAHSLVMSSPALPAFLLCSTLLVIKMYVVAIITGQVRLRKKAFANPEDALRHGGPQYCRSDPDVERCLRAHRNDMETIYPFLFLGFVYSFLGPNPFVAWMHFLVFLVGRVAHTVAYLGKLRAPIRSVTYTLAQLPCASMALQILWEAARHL
Assay: mPGES-1 HTRF assay (inhibition of PGE2 formation from PGH2)
Assay type: biochemical
Conditions: HTRF assay
Summary of the method: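 Microsomes of E. coli expressing human mPGES-1, in 0.1 M KPi pH 7.4 with 2.5 mM GSH, preincubated 25 min at room temperature with inhibitor, then given PGH2 for 1 min before FeCl2 acidic stop. PGE2 quantified by HTRF (665/620 nm ratio) against synthetic PGE2 standard curve; percent inhibition versus controls.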

SMILES	IC50
Cn1c(Nc2cc(CNC(=O)C(C)(F)F)ccc2Cl)nc2cc(C(=O)Nc3ccc(Br)cc3)c(OCC(F)F)cc21 [Example 72, N-(4-Bromo-phenyl)-2-(2-chloro-5-{[(1,1-difluoro-ethylcarbonyl)-amino]-methyl}-phenylamino)-6-(2,2-difluoro-ethoxy)-1-methyl-1H-benzimidazole-5-carboxylic acid amide]	3 nM
CC(C(=O)NCc1ccc(Cl)c(Nc2nc3cc(C(=O)Nc4ccc(Br)cc4)c(OCC(F)F)cc3n2C)c1)C(F)(F)F (centres unmarked) [Example 73, N-(4-Bromo-phenyl)-2-(2-chloro-5-{[(1-trifluoromethyl-ethyl-carbonyl)-amino]-methyl}-phenylamino)-6-(2,2-difluoro-ethoxy)-1-methyl-1H-benzimidazole-5-carboxylic acid amide]	3 nM
Cn1c(Nc2cc(CNC(=O)c3c(F)cccc3Cl)ccc2Cl)nc2cc(C(=O)Nc3ccc(Br)cc3)c(OCC(F)F)cc21 [Example 74, N-(4-Bromo-phenyl)-2-(2-chloro-5-{[(2-chloro-6-fluorophenylcarbonyl)-amino]-methyl}-phenylamino)-6-(2,2-difluoro-ethoxy)-1-methyl-1H-benzimidazole-5-carboxylic acid amide]	4 nM
Cn1c(Nc2cc(CNC(=O)C(C)(N)C(F)(F)F)ccc2Cl)nc2cc(C(=O)Nc3ccc(Br)cc3)c(OCC(F)F)cc21 (centres unmarked) [Example 75, N-(4-Bromo-phenyl)-2-(2-chloro-5-{[(1-amino-1-trifluoromethyl-ethyl-carbonyl)-amino]-methyl}-phenylamino)-6-(2,2-difluoro-ethoxy)-1-methyl-1H-benzimidazole-5-carboxylic acid amide]	3 nM
Cn1c(Nc2cc(CNC(=O)C3(O)CC3)ccc2Cl)nc2cc(C(=O)Nc3ccc(Br)cc3)c(OCC(F)F)cc21 [Example 76, N-(4-Bromo-phenyl)-2-(2-chloro-5-{[(1-hydroxycyclopropanecarbonyl)-amino]-methyl}-phenylamino)-6-(2,2-difluoro-ethoxy)-1-methyl-1H-benzimidazole-5-carboxylic acid amide]	3 nM
Cn1c(Nc2cc(CNC(=O)C(C)(C)C(F)(F)F)ccc2Cl)nc2cc(C(=O)Nc3ccc(Br)cc3)c(OCC(F)F)cc21 [Example 77, N-(4-Bromo-phenyl)-2-(2-chloro-5-{[(1-methyl-1-trifluoromethyl-ethylcarbonyl)-amino]-methyl}-phenylamino)-6-(2,2-difluoro-ethoxy)-1-methyl-1H-benzimidazole-5-carboxylic acid amide]	4 nM
CC(=O)NCc1ccc(Cl)c(Nc2nc3cc(C(=O)Nc4ccc(Br)cc4)c(OCC(F)F)cc3n2C)c1 [Example 79, N-(4-Bromo-phenyl)-2-(2-chloro-5-{[(methylcarbonyl)-amino]-methyl}-phenylamino)-6-(2,2-difluoro-ethoxy)-1-methyl-1H-benzimidazole-5-carboxylic acid amide]	4 nM
Cn1c(Nc2cc(CNC(=O)C3CC3)ccc2Cl)nc2cc(C(=O)Nc3ccc(Br)cc3)c(OCC(F)F)cc21 [Example 80, N-(4-Bromo-phenyl)-2-(2-chloro-5-{[(cyclopropylcarbonyl)-amino]-methyl}-phenylamino)-6-(2,2-difluoro-ethoxy)-1-methyl-1H-benzimidazole-5-carboxylic acid amide]	9 nM
Cn1c(Nc2cc(CN[S+]([O-])C(C)(C)C)ccc2Cl)nc2cc(C(=O)Nc3ccc(Br)cc3)c(OCC(F)F)cc21 (centres unmarked) [Example 81, N-(4-Bromo-phenyl)-2-(2-chloro-5-{[(tert-butylsulfinyl)-amino]-methyl}-phenylamino)-6-(2,2-difluoro-ethoxy)-1-methyl-1H-benzimidazole-5-carboxylic acid amide]	2 nM
Cn1c(Nc2cc(CNS(=O)(=O)C(C)(C)C)ccc2Cl)nc2cc(C(=O)Nc3ccc(Br)cc3)c(OCC(F)F)cc21 [Example 82, N-(4-Bromo-phenyl)-2-(2-chloro-5-{[(tert-butylsulfonyl)-amino]-methyl}-phenylamino)-6-(2,2-difluoro-ethoxy)-1-methyl-1H-benzimidazole-5-carboxylic acid amide]	3 nM
Cn1c(Nc2cc(CNC(=O)C3(C(F)(F)F)CC3)ccc2C(F)(F)F)nc2cc(C(=O)Nc3ccc(Br)cc3)c(OCC(F)F)cc21 [Example 83, N-(4-Bromo-phenyl)-2-(2-trifluoromethyl-5-{[(1-trifluoromethyl-cyclopropanecarbonyl)-amino]-methyl}-phenylamino)-6-(2,2-difluoro-ethoxy)-1-methyl-1H-benzimidazole-5-carboxylic acid amide]	3 nM
Cn1c(Nc2cc(CNC(=O)C3(C(F)(F)F)CC3)c(F)cc2Cl)nc2cc(C(=O)N[C@H]3CC[C@H](C(F)(F)F)CC3)c(OCC(F)F)cc21 [Example 84, 2-(2-Chloro-4-fluoro-5-{[(1-(trifluoromethyl)cyclopropanecarbonyl)amino]methyl}-phenylamino)-6-(2,2-difluoroethoxy)-1-methyl-N-(trans-4-trifluoromethyl-cyclohex-1-yl)-1 H-benzo[d]imidazole-5-carboxamide]	4 nM
Cn1c(Nc2cc(CNC(=O)C3(C(F)(F)F)CC3)c(F)cc2Cl)nc2cc(C(=O)Nc3ccc(Br)cc3)c(OCC(F)F)cc21 [Example 85, N-(4-Bromophenyl)-2-(2-chloro-4-fluoro-5-{[(1-trifluoromethyl-cyclopropanecarbonyl)amino]methyl}phenylamino)-6-(2,2-difluoroethoxy)-1-methyl-1H-benzo[d]imidazole-5-carboxamide]	2 nM
Cn1c(Nc2cc(CNC(=O)C(C)(C)C)ccc2Cl)nc2cc(C(=O)Nc3ccc(F)c(Cl)c3)c(OCC(F)F)cc21 [Example 86, N-(3-Chloro-4-fluoro-phenyl)-2-(2-chloro-5-{[(tert-butylcarbonyl)-amino]-methyl}-phenylamino)-6-(2,2-difluoro-ethoxy)-1-methyl-1H-benzimidazole-5-carboxylic acid amide]	1 nM
Cn1c(Nc2cc(CNC(=O)C(C)(C)C)ccc2Cl)nc2cc(C(=O)NCC3CC3(C)C)c(OCC(F)F)cc21 (centres unmarked) [Example 88, N-(2,2-Dimethylcyclopropyl-methyl)-2-(2-chloro-5-{[(tert-butylcarbonyl)-amino]-methyl}-phenylamino)-6-(2,2-difluoro-ethoxy)-1-methyl-1H-benzimidazole-5-carboxylic acid amide]	2 nM
COc1cc2[nH]c(Nc3cc(CNC(=O)OC(C)(C)C)ccc3C(F)(F)F)nc2cc1C(=O)N[C@H]1CC[C@H](C(F)(F)F)CC1 [Example 91, 2-({5-[(tert.Butoxycarbonyl)amino]methyl}-2-trifluoromethyl-phenylamino)-6-methoxy-N-(trans-4-trifluoromethyl-cyclohex-1-yl)-1H-benzo[d]imidazole-5-carboxamide]	4 nM

Results, then the molecule that gave them:

IC50	SMILES
2 nM	Cn1c(Nc2cc(CNC(=O)C(C)(C)C)ccc2Cl)nc2cc(C(=O)NCC3CCC3)c(OCC(F)F)cc21 [Example 89, N-(Cyclobutylmethyl)-2-(2-chloro-5-{[(tert-butylcarbonyl)-amino]-methyl}-phenylamino)-6-(2,2-difluoro-ethoxy)-1-methyl-1H-benzimidazole-5-carboxylic acid amide]
1 nM	Cn1c(Nc2cc(CNC(=O)C(C)(C)C)ccc2Cl)nc2cc(C(=O)NCC#Cc3ccccc3)c(OCC(F)F)cc21 [Example 90, N-(3-Phenylpropargyl)-2-(2-chloro-5-{[(tert-butylcarbonyl)-amino]-methyl}-phenylamino)-6-(2,2-difluoro-ethoxy)-1-methyl-1H-benzimidazole-5-carboxylic acid amide]
7 nM	COc1cc2[nH]c(Nc3cc(CNC(=O)C(N)C(F)(F)F)ccc3C(F)(F)F)nc2cc1C(=O)N[C@H]1CC[C@H](C(F)(F)F)CC1 (stereo partly drawn) [Example 92, 2-({5-[(2-Amino-3,3,3-trifluoro-propionyl)amino]methyl}-2-trifluoromethyl-phenylamino)-6-methoxy-N-(trans-4-trifluoromethyl-cyclohex-1-yl)-1H-benzo[d]imidazole-5-carboxamide]
2 nM	COc1cc2[nH]c(Nc3cc(CNC(=O)C4(C(F)(F)F)CC4)ccc3C(F)(F)F)nc2cc1C(=O)N[C@H]1CC[C@H](C(F)(F)F)CC1 [Example 93, N-(trans-4-Trifluoromethyl-cyclohex-1-yl)-2-(2-trifluoromethyl-5-{[(1-trifluoromethylcyclopropane-carbonyl)amino]-methyl}-phenylamino)-6-methoxy-1H-benzimidazole-5-carboxylic acid amide]
3 nM	COc1cc2[nH]c(Nc3cc(CNC(=O)C4(O)CC4)ccc3C(F)(F)F)nc2cc1C(=O)N[C@H]1CC[C@H](C(F)(F)F)CC1 [Example 94, N-(trans-4-Trifluoromethyl-cyclohex-1-yl)-2-(2-trifluoromethyl-5-{[(1-hydroxy-cyclopropane-carbonyl)amino]-methyl}-phenylamino)-6-methoxy-1H-benzimidazole-5-carboxylic acid amide]
1 nM	Cn1c(Nc2cc(CNC(=O)C(C)(C)C)ccc2C(F)(F)F)nc2cc(C(=O)N[C@H]3CC[C@H](C(F)(F)F)CC3)c(OCC(F)F)cc21 [Example 95, N-(trans-4-Trifluoromethyl-cyclohex-1-yl)-1-methyl-2-(2-trifluoromethyl-5-{[(tert-butylcarbonyl)-amino]-methyl}-phenylamino)-6-(2,2-difluoro-ethoxy)-1H-benzimidazole-5-carboxylic acid amide]
1 nM	CC(C)(C)C(=O)NCc1ccc(C(F)(F)F)c(Nc2nc3cc(C(=O)N[C@H]4CC[C@H](C(F)(F)F)CC4)c(OCC(F)F)cc3[nH]2)c1 [Example 96, N-(trans-4-Trifluoromethyl-cyclohex-1-yl)-2-(2-trifluoromethyl-5-{[(tert-butylcarbonyl)-amino]-methyl}-phenylamino)-6-(2,2-difluoro-ethoxy)-1H-benzimidazole-5-carboxylic acid amide]
